Drawing on patent publication US8871756B2 (Hoffmann-La Roche Inc., priority 2011, dated 2014), this text covers EC50 for 32 compounds.

Where a name gives a salt, the structure may show the parent alone.

The first assay relates to RSV Long strain. In words: Viral cytopathic effect (CPE) assay, anti-RSV activity. The following applies: RSV Long strain (ATCC); cell viability after 6 days, Cell Counting kit-8. Format: cell-based, Respiratory Syncytial Virus. How it is done:
Viral cytopathic effect (CPE) assay: To measure anti-RSV activity of compounds, 96-well plates are seeded with 6×10^3 cells per well in Dulbecco's modified Eagle's medium (DMEM) containing 10% fetal bovine serum (FBS). Cells are infected the next day with sufficient RSV Long strain (ATCC) to produce an approximately 80-90% cytopathic effect after 6 days, in the presence of serial half-log diluted compound in a total volume of 200 μL per well. The viability of cells is assessed after 6 days using Cell Counting kit-8 (Dojindo Molecular Technologies). The absorbance at 450 nm and referenced at 630 nm is measured to determine 50% effective concentration (EC50).
The compounds of the present invention were tested for their anti-RSV activity, and the activation as described herein. The Examples were tested in the above assay and found to have EC50 of about 0.0001 μM to about 10 μM.
Broadly, the EC50 is the concentration at which the effect is half-maximal. In turn, `Cc1ccc2nc(N3CC[S+]([O-])c4ccccc4C3)nc(NCC3(CN)COC3)c2c1` (centres unmarked) [Example 62-1, N-{[3-(Aminomethyl)oxetan-3-yl]methyl}-6-methyl-2-(1-oxido-2,3-dihydro-1,4-benzothiazepin-4(5H)-yl)quinazolin-4-amine] returned an EC50 of 0.0003 µM.

Still in this assay, the particulars now being: human respiratory syncytial virus, 144 h, RSV Long strain (ATCC); cell viability after 6 days, Cell Counting kit-8.
The compound `CNc1cc(N2CCS(=O)(=O)c3ccccc3C2)nc2ccc(C)cc12` [Example 3-33, 2-(1,1-Dioxido-2,3-dihydro-1,4-benzothiazepin-4(5H)-yl)-N,6-dimethylquinolin-4-amine trifluoroacetate] had an EC50 of 0.426 µM.

The compound `Cc1ccc2nc(N3CCS(=O)(=O)c4cc(F)ccc4C3)cc(NCC3(N)COC3)c2c1` [Example 1-2, N-[(3-Aminooxetan-3-yl)methyl]-2-(8-fluoro-1,1-dioxido-2,3-dihydro-1,4-benzothiazepin-4(5H)-yl)-6-methylquinolin-4-amine] yielded an EC50 of 0.007 µM.

Regarding `Cc1ccc2nc(N3CCS(=O)(=O)c4ccccc4C3)cc(NCC(O)CO)c2c1` (centres unmarked) [Example 32-1, 3-{[2-(1,1-Dioxido-2,3-dihydro-1,4-benzothiazepin-4(5H)-yl)-6-methylquinolin-4-yl]amino}propane-1,2-diol], the EC50 was 0.019 µM.

The compound `NCCCNc1cc(N2CCS(=O)(=O)c3ccccc3C2)nc2ccc(C(F)(F)F)cc12` [Example 17-2, N-[2-(1,1-Dioxido-2,3-dihydro-1,4-benzothiazepin-4(5H)-yl)-6-(trifluoromethyl)quinolin-4-yl]propane-1,3-diamine] showed an EC50 of 0.616 µM.

Regarding `Cc1ccc2nc(N3CCS(=O)(=O)c4ccccc4C3)cc(NCCNC3COC3)c2c1` [Example 45-3, N-[2-(1,1-Dioxido-2,3-dihydro-1,4-benzothiazepin-4(5H)-yl)-6-methylquinolin-4-yl]-N′-(oxetan-3-yl)ethane-1,2-diamine], the EC50 was 0.031 µM.

In the case of `Cc1ccc2nc(N3CCS(=O)(=O)c4ccccc4C3C)cc(NCC3(N)COC3)c2c1` (centres unmarked) [Example 2-8, N-[(3-Aminooxetan-3-yl)methyl]-6-methyl-2-(5-methyl-1,1-dioxido-2,3-dihydro-1,4-benzothiazepin-4(5H)-yl)quinolin-4-amine], the EC50 came to 0.055 µM.

In turn, `N[C@@H]1CN(c2cc(N3CC[S+]([O-])c4ccccc4C3)nc3ccc(Cl)cc23)C[C@H]1F` (relative stereo) [Example 19-7, trans-1-[6-Chloro-2-(1-oxido-2,3-dihydro-1,4-benzothiazepin-4(5H)-yl)quinolin-4-yl]-4-fluoropyrrolidin-3-amine] had an EC50 of 6.86 µM. Against the preceding compound, the EC50 is about 120-fold higher.

In the case of `Cc1ccc2nc(N3CCS(=O)(=O)c4ccccc4C3)cc(S(=O)(=O)c3ccccc3)c2c1` [Example 102, 4-[6-Methyl-4-(phenylsulfonyl)quinolin-2-yl]-2,3,4,5-tetrahydro-1,4-benzothiazepine 1,1-dioxide], a half-maximal effect (EC50) was put at 9.76 µM.

`Nc1cc(N2CCS(=O)(=O)c3cc(OCCCO)ccc3C2)nc2ccccc12` [Example 34, 3-{[4-(4-Aminoquinolin-2-yl)-1,1-dioxido-2,3,4,5-tetrahydro-1,4-benzothiazepin-8-yl]oxy}propan-1-ol]: the EC50 stood at 2.09 µM.

Regarding `Cc1ccc2nc(N3CCS(=O)(=O)c4ccccc4C3)cc(NC[C@H](C)N)c2c1` [Example 5-8, (2S)—N˜1˜-[2-(1,1-Dioxido-2,3-dihydro-1,4-benzothiazepin-4(5H)-yl)-6-methylquinolin-4-yl]propane-1,2-diamine], the EC50 turned out to be 0.022 µM.

`Cc1ccc2nc(N3CCS(=O)(=O)c4ccccc4C3)cc(NCC3CCN3)c2c1` (centres unmarked) [Example 21-3, N-(Azetidin-2-ylmethyl)-2-(1,1-dioxido-2,3-dihydro-1,4-benzothiazepin-4(5H)-yl)-6-methylquinolin-4-amine]: it took 0.015 µM to reach a half-maximal effect (EC50).

As to `Cc1ccc2nc(N3CCS(=O)(=O)c4ccccc4C3)nc(NCCO)c2c1` [Example 57-7, 2-{[2-(1,1-Dioxido-2,3-dihydro-1,4-benzothiazepin-4(5H)-yl)-6-methylquinazolin-4-yl]amino}ethanol], the EC50 amounted to 0.081 µM. This EC50 is about 5.4-fold higher than that of the compound before.

`Cc1ccc2nc(N3CCS(=O)(=O)c4ccccc4C3)cc(NCCNCCO)c2c1` [Example 3-42, 2-[(2-{[2-(1,1-Dioxido-2,3-dihydro-1,4-benzothiazepin-4(5H)-yl)-6-methylquinolin-4-yl]amino}ethyl)amino]ethanol]: the EC50 worked out at 0.007 µM.

The compound `Cc1ccc2nc(N3CCS(=N)(=O)c4ccccc4C3)cc(N3CC(N)C(O)C3)c2c1` (stereo not drawn) [Example 78-1, trans-4-Amino-1-[2-(1-imino-1-oxido-1,2,3,5-tetrahydro-4H-1lambda˜4˜,4-benzothiazepin-4-yl)-6-methylquinolin-4-yl]pyrrolidin-3-ol] displayed an EC50 of 0.016 µM.

The compound `O=S1(=O)CCN(c2cc(NC3CNC3)c3cc(Cl)ccc3n2)Cc2ccccc21` [Example 22, N-(Azetidin-3-yl)-6-chloro-2-(1,1-dioxido-2,3-dihydro-1,4-benzothiazepin-4(5H)-yl)quinolin-4-amine] had an EC50 of 0.036 µM.

The compound `Cc1ccc2nc(N3CCC(F)(F)c4ccccc4C3)cc(NCCCO)c2c1` [Example 110-6, 3-{[2-(5,5-Difluoro-1,3,4,5-tetrahydro-2H-2-benzazepin-2-yl)-6-methylquinolin-4-yl]amino}propan-1-ol] came in with an EC50 of 4.28 µM. Compared with the last compound, the EC50 is about 120-fold higher.

`NCCNc1cc(N2CCCc3ccccc3C2)nc2c(Cl)cccc12` [Example 118-20, N-[8-Chloro-2-(1,3,4,5-tetrahydro-2H-2-benzazepin-2-yl)quinolin-4-yl]ethane-1,2-diamine] registered an EC50 of 1.13 µM.

`Cc1ccc2nc(N3CC[S+]([O-])c4ccccc4C3)cc(NCC(O)CO)c2c1` (centres unmarked) [Example 32-4, 3-{[6-Methyl-2-(1-oxido-2,3-dihydro-1,4-benzothiazepin-4(5H)-yl)quinolin-4-yl]amino}propane-1,2-diol] displayed an EC50 of 0.272 µM.

Regarding `Cc1ccc2c(c1)S(=O)(=O)CCN(c1cc(NCC3(CN)COC3)c3cc(C)ccc3n1)C2` [Example 3-8, N-{[3-(Aminomethyl)oxetan-3-yl]methyl}-6-methyl-2-(8-methyl-1,1-dioxido-2,3-dihydro-1,4-benzothiazepin-4(5H)-yl)quinolin-4-amine], the EC50 was found to be 0.002 µM.

Compound `Cc1ccc2nc(N3CCSc4ccccc4C3)nc(NCC3(CN)COC3)c2c1` [Example 62-6, N-{[3-(Aminomethyl)oxetan-3-yl]methyl}-2-(2,3-dihydro-1,4-benzothiazepin-4(5H)-yl)-6-methylquinazolin-4-amine] showed an EC50 of 0.006 µM.

The compound `Cc1ccc2nc(N3CCS(=O)(=O)c4ccccc4C3)cc(N[C@@H](C)C(=O)O)c2c1` [Example 14-1, N-[2-(1,1-Dioxido-2,3-dihydro-1,4-benzothiazepin-4(5H)-yl)-6-methylquinolin-4-yl]-L-alanine] returned an EC50 of 2.19 µM.

`Cc1ccc2nc(N3CCS(=O)(=O)c4ccccc4C3)cc(NCCN)c2c1F` [Example 9-21, N-[2-(1,1-Dioxido-2,3-dihydro-1,4-benzothiazepin-4(5H)-yl)-5-fluoro-6-methylquinolin-4-yl]ethane-1,2-diamine] yielded a 50% effective concentration (EC50) of 0.021 µM.

Compound `COc1ccc2c(c1)S(=O)(=O)CCN(c1cc(N)c3cc(C)ccc3n1)C2` [Example 20-1, 2-(8-Methoxy-1,1-dioxido-2,3-dihydro-1,4-benzothiazepin-4(5H)-yl)-6-methylquinolin-4-amine] showed an EC50 of 0.073 µM.

The compound `Cc1ccc2nc(N3CCS(=O)(=O)c4ccccc4C3)cc(NC(=O)[C@H](C)N)c2c1` [Example 40-3, N-[2-(1,1-Dioxido-2,3-dihydro-1,4-benzothiazepin-4(5H)-yl)-6-methylquinolin-4-yl]alaninamide] yielded an EC50 of 0.917 µM.

The compound `Cc1ccc2nc(N3CC[S+]([O-])c4ccccc4C3)cc(NCC3(CN)COC3)c2c1` (centres unmarked) [Example 18-8, N-{[3-(Aminomethyl)oxetan-3-yl]methyl}-6-methyl-2-(1-oxido-2,3-dihydro-1,4-benzothiazepin-4(5H)-yl)quinolin-4-amine] displayed an EC50 of 0.0007 µM.

The compound `Cc1cc2c(NCCO)cc(N3CCS(=O)(=O)c4ccccc4C3)nc2cc1F` [Example 9-23, 2-{[2-(1,1-Dioxido-2,3-dihydro-1,4-benzothiazepin-4(5H)-yl)-7-fluoro-6-methylquinolin-4-yl]amino}ethanol] displayed an EC50 of 3.02 µM.

Consider `Cc1ccc2nc(N3CCS(=O)(=O)c4ccccc4C3)cc(OC3CCNC3)c2c1` (centres unmarked) [Example 98-1, 4-[6-Methyl-4-(pyrrolidin-3-yloxy)quinolin-2-yl]-2,3,4,5-tetrahydro-1,4-benzothiazepine 1,1-dioxide], for which the EC50 is 0.778 µM.

`COc1ccc2nc(N3CCCc4ccccc4C3)cc(NCCN)c2c1` [Example 118-11, N-[6-Methoxy-2-(1,3,4,5-tetrahydro-2H-2-benzazepin-2-yl)quinolin-4-yl]ethane-1,2-diamine] showed an EC50 of 0.323 µM. Compared with the last compound, the EC50 is about 2.4-fold lower.

`C#Cc1ccc2nc(N3CCS(=O)(=O)c4ccccc4C3)cc(NCCCN)c2c1` [Example 54, N-[2-(1,1-Dioxido-2,3-dihydro-1,4-benzothiazepin-4(5H)-yl)-6-ethynylquinolin-4-yl]propane-1,3-diamine] yielded a half-maximal effective concentration (EC50) of 4.8 µM.

Consider `Cc1ccc2nc(N3CCS(=O)(=O)c4ccccc4C3)cc(NCCN3CCOCC3)c2c1` [Example 12-1, 2-(1,1-Dioxido-2,3-dihydro-1,4-benzothiazepin-4(5H)-yl)-6-methyl-N-[2-(morpholin-4-yl)ethyl]quinolin-4-amine], for which the EC50 stood at 0.536 µM.

In turn, `Cc1ccc2nc(N3CCS(=O)(=O)c4ccccc4C3)cc(NCC[S+](C)[O-])c2c1` (centres unmarked) [Example 74, 2-(1,1-Dioxido-2,3-dihydro-1,4-benzothiazepin-4(5H)-yl)-6-methyl-N-[2-(methylsulfinyl)ethyl]quinolin-4-amine] had an EC50 of 1.94 µM.
